Measured values from US6747061B2, “N-substituted dithiocarbamates for the treatment of biological disorders” (AtheroGenics, Inc., priority 2000, dated 2004).

System: cytokine induced oxidatively modified proteins in NHBE cells
Experiment: OxyBlot oxidized protein analysis
Type: cell-based, human
Settings: TNF + IL-4, FIG. 4
Procedure: The OxyBlot™ assay (Intergen) detects oxidative modification of proteins by reactive oxygen species such as hydroxynonenal. As a consequence of the modification, carbonyl groups are introduced into protein side chains by a site-specific mechanism. OxyBlot™ detects these carbonyl groups, which is a hallmark of the oxidation status of proteins.
Normal human bronchial epithelial cells (NHBE) were purchased from Clonetics. They were cultured in BEGM (Clonetics) media without retinoic acid. In a typical experiment, the cells were seeded in 24-well plates. Media was changed to BEGM without retinoic acid (RA) and hydrocortisone (HC) 24 hr before dosing. Cells were then exposed to compounds in fresh BEGM without RA and HC for 20 min at 37° C., subsequently stimulated with TNF (10 ng/ml) and IL-4 (20 ng/ml) purchased from Boehringer Mannheim for another 20 min at 37° C. All compounds were dissolved in DMSO and the final concentration of DMSO was 0.2%.
Cells were washed 3 times with cold PBS, and lysed in 100 μl/well 1×RIPA buffer (25 mM Tris pH7.6, 150 mM NaCl, 2 mM EDTA, 1% IGEPAC, 0.5% deoxycholate, 0.1% SDS), 50 mM DTT, 1 mM PMSF, […] leupeptin, 1 μl/ml aprotinin. The cell lysates were clarified by centrifugation. 5 μl of the lysates were mixed with 5 μl 12% SDS (OxyBlot™ kit) and 10 μl of 1×2,4-Dintirophenylhydrazin (DNPH) (OxyBlot™ kit). […]

**Q.** Which “inhibition of cytokine induced oxidatively modified proteins” value does the source give for S=C(S)N1CCCC1 [PTDC, pyrrolidine dithiocarbamate, reference compound] here?
**A.** inhibit
